# Test results reported in PubChem BioAssay (NCI).
#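 How tested: cells in 96-well plates exposed to compound for 48 hours at five concentrations. At the TGI there is no net growth.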
# Assays:
# Test in all cases: inhibition of tumour cell growth, NCI panel, 48 h
# 786-0 renal = system: 786-0 renal
# A498 renal = system: A498 renal
# CCRF-CEM leukemia = system: CCRF-CEM leukemia
# DU-145 prostate = system: DU-145 prostate
# EKVX NSCLC = system: EKVX NSCLC
# HCT-15 colon = system: HCT-15 colon
# HOP-62 NSCLC = system: HOP-62 NSCLC
# HT29 colon = system: HT29 colon
# MALME-3M melanoma = system: MALME-3M melanoma
# MOLT-4 leukemia = system: MOLT-4 leukemia
# NCI-H522 lung = system: NCI-H522 lung
# SF-268 CNS = system: SF-268 CNS
# SF-295 CNS = system: SF-295 CNS
# SNB-75 CNS = system: SNB-75 CNS
# T-47D breast = system: T-47D breast
# TK-10 renal = system: TK-10 renal
# U251 CNS = system: U251 CNS
# UO-31 renal = system: UO-31 renal
# SK-MEL-5 melanoma = system: SK-MEL-5 melanoma
Structure (SMILES),TGI (786-0 renal),TGI (A498 renal),TGI (CCRF-CEM leukemia),TGI (DU-145 prostate),TGI (EKVX NSCLC),TGI (HCT-15 colon),TGI (HOP-62 NSCLC),TGI (HT29 colon),TGI (MALME-3M melanoma),TGI (MOLT-4 leukemia),TGI (NCI-H522 lung),TGI (SF-268 CNS),TGI (SF-295 CNS),TGI (SNB-75 CNS),TGI (T-47D breast),TGI (TK-10 renal),TGI (U251 CNS),TGI (UO-31 renal),TGI (SK-MEL-5 melanoma)
CCCC[Si](CCCC)(CCCC)O[C@@H](/C=C/C(=O)OCC)[C@H](Cc1ccccc1)O[Si](CCCC)(CCCC)CCCC,> 100 µM,> 100 µM,> 100 µM,> 100 µM,> 100 µM,> 100 µM,> 100 µM,> 100 µM,> 100 µM,> 100 µM,> 100 µM,> 100 µM,> 100 µM,> 100 µM,> 100 µM,> 100 µM,> 100 µM,> 100 µM,–
CC(C)=CCC/C(C)=C/CC/C(C)=C/CC/C(C=O)=C/CC/C(C)=C\CC/C(C)=C/CC/C(C)=C/CC/C(C)=C/CC1=CC(=O)C=CC1=O,> 100 µM,> 100 µM,> 100 µM,> 100 µM,> 100 µM,> 100 µM,> 100 µM,–,66.3 µM,> 100 µM,32.3 µM,> 100 µM,> 100 µM,96.1 µM,69.4 µM,> 100 µM,> 100 µM,> 100 µM,> 100 µM
O=C(CN1C(=O)c2ccccc2C1=O)OCC1CCCN2CCCCC12 (stereo not given),> 100 µM,> 100 µM,> 100 µM,> 100 µM,> 100 µM,> 100 µM,–,> 100 µM,> 100 µM,> 100 µM,–,> 100 µM,> 100 µM,> 100 µM,> 100 µM,> 100 µM,> 100 µM,> 100 µM,> 100 µM
CCC(CCCCC1CC[C@H]2CC(=O)C[C@@H]12)OC (stereo not given in full),> 100 µM,> 100 µM,> 100 µM,> 100 µM,> 100 µM,> 100 µM,> 100 µM,> 100 µM,> 100 µM,> 100 µM,> 100 µM,> 100 µM,> 100 µM,> 100 µM,> 100 µM,> 100 µM,> 100 µM,–,> 100 µM
Cc1ccc(S(=O)(=O)N/N=C2/CC[C@H](C(C)(C)C)C[C@@H]2C)cc1,31.8 µM,31.6 µM,38.8 µM,30.3 µM,32.2 µM,32.7 µM,26.9 µM,30.7 µM,29.8 µM,31.1 µM,–,–,29.2 µM,39 µM,25.5 µM,30.4 µM,33.5 µM,26.6 µM,26.8 µM
CC(C)(C)OC(=O)N1C(=O)OC[C@@H]2C=C[C@@H]21,> 100 µM,> 100 µM,> 100 µM,> 100 µM,> 100 µM,> 100 µM,> 100 µM,> 100 µM,> 100 µM,> 100 µM,> 100 µM,> 100 µM,> 100 µM,–,> 100 µM,> 100 µM,> 100 µM,–,> 100 µM
Clc1ccc(-c2cc(-c3nc4ccccc4[nH]3)no2)cc1,59 µM,47.5 µM,57.4 µM,24.6 µM,34 µM,45 µM,38.2 µM,35.3 µM,37.5 µM,47.9 µM,42.8 µM,45.9 µM,33 µM,44.5 µM,37.7 µM,40 µM,–,34.7 µM,34.7 µM
CCOC(=O)c1nc2ccc(C(F)(F)F)cc2nc1Nc1ccc(OC)c(OC)c1,> 100 µM,> 100 µM,> 100 µM,> 100 µM,> 100 µM,> 100 µM,29 µM,> 100 µM,> 100 µM,> 100 µM,> 100 µM,> 100 µM,> 100 µM,67.4 µM,> 100 µM,> 100 µM,–,> 100 µM,> 100 µM
C[C@]12CCC(=O)C=C1CC[C@@H]1[C@@H]2CC[C@]2(C)C(=O)/C(=C\c3ccccc3)C[C@@H]12,> 66.8 µM,42.4 µM,23.3 µM,> 100 µM,> 100 µM,> 100 µM,> 100 µM,> 100 µM,73.9 µM,> 57 µM,–,–,> 80.3 µM,> 100 µM,> 86.7 µM,> 100 µM,> 69.4 µM,> 70.6 µM,> 48.6 µM
CC(C)(Cc1ccccc1)Cc1cc(O)ccc1O,29 µM,47.6 µM,36.7 µM,> 100 µM,65.8 µM,39.8 µM,64.3 µM,48.5 µM,33.2 µM,49.5 µM,17.1 µM,35.7 µM,73.5 µM,68.1 µM,23.1 µM,95.9 µM,32.2 µM,26.3 µM,–
O=C1c2cccnc2-c2nccc3ccnc1c23,2.04 µM,13 µM,0.156 µM,2.65 µM,3.75 µM,1.8 µM,7.95 µM,2.09 µM,3.28 µM,0.756 µM,0.666 µM,6.58 µM,2.78 µM,5.92 µM,1.77 µM,–,3.49 µM,3.16 µM,1.84 µM
COc1cc(C2SC(N)=Nc3c2c(C)nn3C(=O)Cc2ccccc2)ccc1O (stereo not given),> 100 µM,> 100 µM,> 100 µM,> 100 µM,> 100 µM,> 100 µM,> 100 µM,> 100 µM,> 100 µM,> 100 µM,> 100 µM,> 100 µM,> 100 µM,75.2 µM,> 100 µM,> 100 µM,–,> 100 µM,> 100 µM
CCC1CCN=C(Cn2cc(C)c(=O)[nH]c2=O)N1 (stereo not given),> 100 µM,> 100 µM,> 100 µM,> 100 µM,> 100 µM,> 100 µM,> 100 µM,> 100 µM,> 100 µM,–,> 100 µM,> 100 µM,> 100 µM,> 100 µM,> 100 µM,> 100 µM,> 100 µM,> 100 µM,> 100 µM
COc1cc(CNC(=O)CCCCCCCCCCSSCCCCCCCCCCC(=O)NCc2ccc(O)c(OC)c2)ccc1O,> 10 µM,> 10 µM,> 10 µM,> 10 µM,> 10 µM,> 10 µM,> 10 µM,> 10 µM,> 10 µM,> 10 µM,> 10 µM,> 10 µM,> 10 µM,> 10 µM,> 10 µM,> 10 µM,> 10 µM,–,> 10 µM
O=C(Nc1ccc(F)cc1)c1cc2ccc(O)cc2oc1=Nc1cccc(F)c1,> 100 µM,> 100 µM,71.8 µM,> 100 µM,64.4 µM,92.2 µM,> 100 µM,> 100 µM,> 100 µM,> 100 µM,97.5 µM,> 100 µM,> 100 µM,–,> 100 µM,–,> 100 µM,–,35.6 µM
O=C(O)C1CCCN1Cc1ccc2c(c1)OCO2 (stereo not given),> 100 µM,> 100 µM,–,> 100 µM,> 100 µM,> 100 µM,> 100 µM,> 100 µM,> 100 µM,> 100 µM,> 100 µM,> 100 µM,> 100 µM,> 100 µM,> 100 µM,> 100 µM,> 100 µM,> 100 µM,> 100 µM
O=C(O)CCCC#CCCCC(=O)O,> 100 µM,> 100 µM,–,> 100 µM,> 100 µM,> 100 µM,> 100 µM,> 100 µM,> 100 µM,–,> 100 µM,> 100 µM,> 100 µM,> 100 µM,> 100 µM,> 100 µM,> 100 µM,> 100 µM,> 100 µM
COC(=O)c1cc(/C=C2\Cc3cc4c(cc3C2=O)CCC4)cc2c1CCC2,> 100 µM,> 100 µM,> 100 µM,> 100 µM,> 100 µM,> 100 µM,> 100 µM,> 100 µM,> 100 µM,> 100 µM,> 100 µM,> 100 µM,> 100 µM,> 100 µM,> 100 µM,> 100 µM,> 100 µM,> 100 µM,–
CC(C)[C@H](NC(=O)[C@@H](O)[C@H](N)Cc1ccccc1)C(=O)N[C@@H](Cc1ccccc1)C(=O)O,> 100 µM,> 100 µM,> 100 µM,> 100 µM,> 100 µM,> 100 µM,> 100 µM,–,> 100 µM,> 100 µM,> 100 µM,> 100 µM,> 100 µM,> 100 µM,> 100 µM,> 100 µM,> 100 µM,> 100 µM,> 100 µM
CC[C@@H]1C[C@@H](O)[C@@H]2[C@H](O)[C@H](O)CN2C1,> 100 µM,> 100 µM,> 100 µM,> 100 µM,> 100 µM,> 100 µM,–,> 100 µM,> 100 µM,> 100 µM,> 100 µM,> 100 µM,> 100 µM,> 100 µM,> 100 µM,> 100 µM,> 100 µM,> 100 µM,> 100 µM
Cc1ccc(OCCn2cc(Nc3ccccc3)c(=O)[nH]c2=O)cc1,> 100 µM,> 100 µM,> 100 µM,> 100 µM,> 100 µM,> 100 µM,–,> 100 µM,> 100 µM,> 100 µM,> 100 µM,> 100 µM,> 100 µM,> 100 µM,> 100 µM,> 100 µM,> 100 µM,> 100 µM,> 100 µM
CC[C@]12C=CCN3CCC4(c5cc(N=Nc6ccc([N+](=O)[O-])cc6)c(OC)cc5N(C)[C@H]4[C@@](O)(C(=O)OC)[C@@H]1OC(C)=O)[C@@H]32 (stereo not given in full),25.1 µM,77.2 µM,26.6 µM,> 100 µM,56.9 µM,57.8 µM,43.6 µM,23.9 µM,36.9 µM,13.1 µM,–,> 100 µM,30.8 µM,35.1 µM,> 100 µM,63 µM,27.4 µM,25.9 µM,50.1 µM
c1ccc(-c2cc(-c3cc(-c4ccccc4)no3)on2)cc1,> 100 µM,> 100 µM,78.8 µM,> 100 µM,> 100 µM,> 100 µM,> 100 µM,> 100 µM,> 100 µM,81.3 µM,> 100 µM,> 100 µM,> 100 µM,–,> 100 µM,> 100 µM,> 100 µM,> 100 µM,> 100 µM
Cc1cc(-c2ccc(Cl)cc2)c(C#N)c(=S)n1C1OC(CO)C(O)C(O)C1O (stereo not given),> 100 µM,> 100 µM,> 100 µM,> 100 µM,> 100 µM,> 100 µM,> 100 µM,> 100 µM,> 100 µM,> 100 µM,> 100 µM,> 100 µM,> 100 µM,78.7 µM,> 100 µM,> 100 µM,–,–,> 100 µM
[O-][n+]1onc2c1-c1nonc1CC2,> 100 µM,83.6 µM,> 100 µM,> 100 µM,81.6 µM,> 100 µM,61.2 µM,> 100 µM,54 µM,> 100 µM,95.1 µM,> 100 µM,> 100 µM,–,> 100 µM,56.4 µM,> 100 µM,> 100 µM,78.6 µM
CCOC(=O)c1cc(C2(OC)CCN(Cc3ccccc3)C2=O)c(-c2cc(C)no2)[nH]1 (stereo not given),> 100 µM,> 100 µM,–,> 100 µM,> 100 µM,> 100 µM,> 100 µM,> 100 µM,> 100 µM,> 100 µM,> 100 µM,> 100 µM,> 100 µM,> 100 µM,> 100 µM,> 100 µM,> 100 µM,> 100 µM,> 100 µM
